According to patent US20260355323A1, “CEREBLON-RECRUITING BCL-XL/BCL-2 DUAL DEGRADERS” (University of Florida Research Foundation, Incorporated, priority 2022, published 2026):

Legend:
[1] = tested on: RS4;11 acute lymphoblastic leukemia cells; experiment: Cell viability, tetrazolium-based MTS assay, RS4;11; settings: Homo sapiens, RS4;11, 48 h, read-out: Anti-Cancer Activity EC50 (48 hr), RS4
Protocol: (§1) Acute lymphoblastic leukemia cells (MOLT-4 and RS4;11) were incubated with increasing concentrations of Bcl-xL/Bcl-2 degraders for 48 h. Cell viability was measured by tetrazolium-based MTS assay.

[2] = tested on: MOLT-4 acute lymphoblastic leukemia cells; experiment: Cell viability, tetrazolium-based MTS assay, MOLT-4; settings: Homo sapiens, MOLT-4, 48 h; read-out: Anti-Cancer Activity EC50 (48 hr), MOLT-4
Protocol: as §1

[3] = tested on: WI-38 NC; experiment: Senolytic activity, cell viability (PrestoBlue HS), WI-38 NC; type: cell-based; settings: for EC50: Homo sapiens, 72 h
Protocol: WI-38 and HUVEC cells were incubated with increasing concentrations of degraders for 72 h. Cell viability was measured using PrestoBlue HS cell viability reagent.

EC50 [1] [nM]	EC50 [2] [nM]	SMILES	EC50 [3] [nM]	Senolytic Activity EC50 (72 hr), WI-38 NC [3]
< 1	< 1	C[C@@]1(CN2CCN(C(=O)CCCCCN3CCN(c4ccc5c(c4)CN(C4CCC(=O)NC4=O)C5=O)CC3)CC2)CCC(c2ccc(Cl)cc2)=C(CN2CCN(c3ccc(C(=O)NS(=O)(=O)c4ccc(N[C@H](CCN5CCCOCC5)CSc5ccccc5)c(S(=O)(=O)C(F)(F)F)c4)cc3)CC2)C1 (stereo partly drawn) [Compound 3, N-((4-(((R)-4-(1,4-oxazepan-4-yl)-1-(phenylthio)butan-2-yl)amino)-3-((trifluoromethyl)sulfonyl)phenyl)sulfonyl)-4-(4-(((4R)-4′-chloro-4-((4-(6-(4-(2-(2,6-dioxopiperidin-3-yl)-1-oxoisoindolin-5-yl)piperazin-1-yl)hexanoyl)piperazin-1-yl)methyl)-4-methyl-3,4,5,6-tetrahydro-[1,1′-biphenyl]-2-yl)methyl)piperazin-1-yl)benzamide]	> 10000	
< 1	< 1	CC1(CN2CCN(C(=O)CN3CCN(C(=O)CNc4ccc5c(c4)C(=O)N(C4CCC(=O)NC4=O)C5=O)CC3)CC2)CCC(c2ccc(Cl)cc2)=C(CN2CCN(c3ccc(C(=O)NS(=O)(=O)c4ccc(N[C@H](CCN5CCOCC5)CSc5ccccc5)c(S(=O)(=O)C(F)(F)F)c4)cc3)CC2)C1 (stereo partly drawn) [Compound 17, 4-(4-((4′-chloro-4-((4-(2-(4-((2-(2,6-dioxopiperidin-3-yl)-1,3-dioxoisoindolin-5-yl)glycyl)piperazin-1-yl)acetyl)piperazin-1-yl)methyl)-4-methyl-3,4,5,6-tetrahydro-[1,1′-biphenyl]-2-yl)methyl)piperazin-1-yl)-N-((4-(((R)-4-morpholino-1-(phenylthio)butan-2-yl)amino)-3-((trifluoromethyl)sulfonyl)phenyl)sulfonyl)benzamide]	> 10000	
< 1	1 to 10	C[C@@]1(CN2CC(CN3CCN(c4ccc5c(c4)CN(C4CCC(=O)NC4=O)C5=O)CC3)C2)CCC(c2ccc(Cl)cc2)=C(CN2CCN(c3ccc(C(=O)NS(=O)(=O)c4ccc(N[C@H](CCN5CCCOCC5)CSc5ccccc5)c(S(=O)(=O)C(F)(F)F)c4)cc3)CC2)C1 (stereo partly drawn) [Compound 24, N-((4-(((R)-4-(1,4-oxazepan-4-yl)-1-(phenylthio)butan-2-yl)amino)-3-((trifluoromethyl)sulfonyl)phenyl)sulfonyl)-4-(4-(((4R)-4′-chloro-4-((3-((4-(2-(2,6-dioxopiperidin-3-yl)-1-oxoisoindolin-5-yl)piperazin-1-yl)methyl)azetidin-1-yl)methyl)-4-methyl-3,4,5,6-tetrahydro-[1,1′-biphenyl]-2-yl)methyl)piperazin-1-yl)benzamide]	> 10000	
1 to 10	< 1	C[C@@]1(CN2CCN(CC#Cc3ccc4c(c3)CN(C3CCC(=O)NC3=O)C4=O)CC2)CCC(c2ccc(Cl)cc2)=C(CN2CCN(c3ccc(C(=O)NS(=O)(=O)c4ccc(N[C@H](CCN5CCCOCC5)CSc5ccccc5)c(S(=O)(=O)C(F)(F)F)c4)cc3)CC2)C1 (stereo partly drawn) [Compound 26, N-((4-(((R)-4-(1,4-oxazepan-4-yl)-1-(phenylthio)butan-2-yl)amino)-3-((trifluoromethyl)sulfonyl)phenyl)sulfonyl)-4-(4-(((4R)-4′-chloro-4-((4-(3-(2-(2,6-dioxopiperidin-3-yl)-1-oxoisoindolin-5-yl)prop-2-yn-1-yl)piperazin-1-yl)methyl)-4-methyl-3,4,5,6-tetrahydro-[1,1′-biphenyl]-2-yl)methyl)piperazin-1-yl)benzamide]	> 10000	
< 1	1 to 10	C[C@@]1(CN2CCC(CC#Cc3ccc4c(c3)CN(C3CCC(=O)NC3=O)C4=O)CC2)CCC(c2ccc(Cl)cc2)=C(CN2CCN(c3ccc(C(=O)NS(=O)(=O)c4ccc(N[C@H](CCN5CCCOCC5)CSc5ccccc5)c(S(=O)(=O)C(F)(F)F)c4)cc3)CC2)C1 (stereo partly drawn) [Compound 29, N-((4-(((R)-4-(1,4-oxazepan-4-yl)-1-(phenylthio)butan-2-yl)amino)-3-((trifluoromethyl)sulfonyl)phenyl)sulfonyl)-4-(4-(((4R)-4′-chloro-4-((4-(3-(2-(2,6-dioxopiperidin-3-yl)-1-oxoisoindolin-5-yl)prop-2-yn-1-yl)piperidin-1-yl)methyl)-4-methyl-3,4,5,6-tetrahydro-[1,1′-biphenyl]-2-yl)methyl)piperazin-1-yl)benzamide]	> 10000	
1 to 10	< 1	CN(CC#Cc1ccc2c(c1)CN(C1CCC(=O)NC1=O)C2=O)C[C@]1(C)CCC(c2ccc(Cl)cc2)=C(CN2CCN(c3ccc(C(=O)NS(=O)(=O)c4ccc(N[C@H](CCN5CCCOCC5)CSc5ccccc5)c(S(=O)(=O)C(F)(F)F)c4)cc3)CC2)C1 (stereo partly drawn) [Compound 37, N-((4-(((R)-4-(1,4-oxazepan-4-yl)-1-(phenylthio)butan-2-yl)amino)-3-((trifluoromethyl)sulfonyl)phenyl)sulfonyl)-4-(4-(((4R)-4′-chloro-4-(((3-(2-(2,6-dioxopiperidin-3-yl)-1-oxoisoindolin-5-yl)prop-2-yn-1-yl)(methyl)amino)methyl)-4-methyl-3,4,5,6-tetrahydro-[1,1′-biphenyl]-2-yl)methyl)piperazin-1-yl)benzamide]	> 10000	
1 to 10	1 to 10	CC(C)N(CC#Cc1ccc2c(c1)CN(C1CCC(=O)NC1=O)C2=O)C[C@]1(C)CCC(c2ccc(Cl)cc2)=C(CN2CCN(c3ccc(C(=O)NS(=O)(=O)c4ccc(N[C@H](CCN5CCCOCC5)CSc5ccccc5)c(S(=O)(=O)C(F)(F)F)c4)cc3)CC2)C1 (stereo partly drawn) [Compound 38, N-((4-(((R)-4-(1,4-oxazepan-4-yl)-1-(phenylthio)butan-2-yl)amino)-3-((trifluoromethyl)sulfonyl)phenyl)sulfonyl)-4-(4-(((4R)-4′-chloro-4-(((3-(2-(2,6-dioxopiperidin-3-yl)-1-oxoisoindolin-5-yl)prop-2-yn-1-yl) (isopropyl)amino)methyl)-4-methyl-3,4,5,6-tetrahydro-[1,1′-biphenyl]-2-yl)methyl)piperazin-1-yl)benzamide]	> 10000	
< 1	< 1	C[C@@]1(CN2CCN(CCC#Cc3ccc4c(c3)CN(C3CCC(=O)NC3=O)C4=O)CC2)CCC(c2ccc(Cl)cc2)=C(CN2CCN(c3ccc(C(=O)NS(=O)(=O)c4ccc(N[C@H](CCN5CCCOCC5)CSc5ccccc5)c(S(=O)(=O)C(F)(F)F)c4)cc3)CC2)C1 (stereo partly drawn) [Compound 40, N-((4-(((R)-4-(1,4-oxazepan-4-yl)-1-(phenylthio)butan-2-yl)amino)-3-((trifluoromethyl)sulfonyl)phenyl)sulfonyl)-4-(4-(((4R)-4′-chloro-4-((4-(4-(2-(2,6-dioxopiperidin-3-yl)-1-oxoisoindolin-5-yl)but-3-yn-1-yl)piperazin-1-yl)methyl)-4-methyl-3,4,5,6-tetrahydro-[1,1′-biphenyl]-2-yl)methyl)piperazin-1-yl)benzamide]	> 10000	
1 to 10	1 to 10	C[C@@]1(CN2CC(CN3CCCN(c4ccc5c(c4)CN(C4CCC(=O)NC4=O)C5=O)CC3)C2)CCC(c2ccc(Cl)cc2)=C(CN2CCN(c3ccc(C(=O)NS(=O)(=O)c4ccc(N[C@H](CCN5CCCOCC5)CSc5ccccc5)c(S(=O)(=O)C(F)(F)F)c4)cc3)CC2)C1 (stereo partly drawn) [Compound 45, N-((4-(((R)-4-(1,4-oxazepan-4-yl)-1-(phenylthio)butan-2-yl)amino)-3-((trifluoromethyl)sulfonyl)phenyl)sulfonyl)-4-(4-(((4R)-4′-chloro-4-((3-((4-(2-(2,6-dioxopiperidin-3-yl)-1-oxoisoindolin-5-yl)-1,4-diazepan-1-yl)methyl)azetidin-1-yl)methyl)-4-methyl-3,4,5,6-tetrahydro-[1,1′-biphenyl]-2-yl)methyl)piperazin-1-yl)benzamide]		++ (100-10 μM)
1 to 10	1 to 10	C[C@@]1(CN2CCC(CN3CCN(c4ccc(C(=O)N[C@H]5CCC(=O)NC5=O)cc4)CC3)CC2)CCC(c2ccc(Cl)cc2)=C(CN2CCN(c3ccc(C(=O)NS(=O)(=O)c4ccc(N[C@H](CCN5CCCOCC5)CSc5ccccc5)c(S(=O)(=O)C(F)(F)F)c4)cc3)CC2)C1 [Compound 139, N-((4-(((R)-4-(1,4-oxazepan-4-yl)-1-(phenylthio)butan-2-yl)amino)-3-((trifluoromethyl)sulfonyl)phenyl)sulfonyl)-4-(4-(((R)-4′-chloro-4-((4-((4-(4-(((S)-2,6-dioxopiperidin-3-yl)carbamoyl)phenyl)piperazin-1-yl)methyl)piperidin-1-yl)methyl)-4-methyl-3,4,5,6-tetrahydro-[1,1′-biphenyl]-2-yl)methyl)piperazin-1-yl)benzamide]		
10 to 100	1 to 10	C[C@@]1(CN2CCN(c3ccc(NC4CCC(=O)NC4=O)cc3F)CC2)CCC(c2ccc(Cl)cc2)=C(CN2CCN(c3ccc(C(=O)NS(=O)(=O)c4ccc(N[C@H](CCN5CCCOCC5)CSc5ccccc5)c(S(=O)(=O)C(F)(F)F)c4)cc3)CC2)C1 (stereo partly drawn) [Compound 140, N-((4-(((R)-4-(1,4-oxazepan-4-yl)-1-(phenylthio)butan-2-yl)amino)-3-((trifluoromethyl)sulfonyl)phenyl)sulfonyl)-4-(4-(((4R)-4′-chloro-4-((4-(4-((2,6-dioxopiperidin-3-yl)amino)-2-fluorophenyl)piperazin-1-yl)methyl)-4-methyl-3,4,5,6-tetrahydro-[1,1′-biphenyl]-2-yl)methyl)piperazin-1-yl)benzamide]		
